Laboratory results taken from US11629171B2, “Beta-hairpin peptidomimetics” (POLYPHOR AG, priority 2017, dated 2023).
Converted amounts (≈) assume the structure as drawn. Where a SMILES comes first, the peptide text is derived from it. Bridges are numbered along the chain shown (N, C = ends). Roman numbers before positions name the chains, in order. [ ]: non-standard residue; d: D form. Pen = CC(C)(S)[C@H](N)C(=O)O; Tle = CC(C)(C)[C@H](N)C(=O)O; Hiv = CC(C)[C@H](O)C(=O)O; dDab = NCC[C@@H](N)C(=O)O; Dab = NCC[C@H](N)C(=O)O; Dap = NC[C@H](N)C(=O)O

Columns and labels:
Format in all cases: cell-based
[1] = system: Klebsiella pneumoniae 968733; settings: 968733
Summary of the method: (§1)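 Cation-adjusted MH-II broth, 0.002% polysorbate 80, inoculum near 10^6 CFU/mL. MIC read visually after 18-20 h, 35° C; units μg/mL.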

[2] = system: Escherichia coli 926415; settings: 926415
Summary of the method: as §1

[3] = system: Acinetobacter baumannii DSM 30008; settings: DSM 30008
Summary of the method: as §1

[4] = system: Escherichia coli ATCC 25922; settings: ATCC 25922
Summary of the method: as §1

[5] = system: Enterobacter cloacae 848840; settings: 848840
Summary of the method: as §1

[6] = system: Pseudomonas aeruginosa ATCC 27853; settings: ATCC 27853
Summary of the method: as §1

[7] = system: Acinetobacter baumannii 872842; settings: 872842
Summary of the method: as §1

[8] = system: Klebsiella pneumoniae SSI #3010; settings: SSI #3010
Summary of the method: as §1

[9] = system: human red blood cells (hRBC); experiment: Hemolysis; settings: red cells of human, 1 h, 200
Summary of the method: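 Percent lysis of human red cells was derived from OD540 of the supernatant, referenced to 2% Triton X-100, after a 1 h, 37° C incubation of 20% (v/v) cells with 200 μg/mL peptide.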

Compound	MIC [1]	MIC [2]	MIC [3]	MIC [4]	MIC [5]	MIC [6]	MIC [7]	MIC [8]	Acinetobacter baumannii DSM 30008 MIC [3]	Escherichia coli ATCC 25922 MIC [4]	Pseudomonas aeruginosa ATCC 27853 MIC [6]	Klebsiella pneumoniae SSI #3010 MIC [8]	Hemolysis at 200 μg/mL [9]
CC(=O)N[C@H](C(=O)N[C@H]1CSSC[C@@H](C(=O)N[C@@H](CO)C(N)=O)NC(=O)[C@H](C(C)C)NC(=O)[C@H](CCC(=O)O)NC(=O)[C@H](Cc2c[nH]c3ccccc23)NC(=O)[C@H](CCN)NC(=O)[C@@H](CCN)NC(=O)[C@H](CCC(=O)N[C@@H](CCN)C(=O)N[C@H](C(=O)N[C@@H](CN)C(=O)N[C@H]2CCNC(=O)[C@H]([C@@H](C)O)NC(=O)[C@H](CCN)NC(=O)[C@H](CCN)NC(=O)[C@H](CC(C)C)NC(=O)[C@@H](CC(C)C)NC(=O)[C@H](CCN)NC2=O)[C@@H](C)O)NC(=O)[C@H](CO)NC(=O)[C@H](Cc2ccc(O)cc2)NC1=O)C(C)C [Ex. 268] (I: Ac-VCYSE[dDab][Dab]WEVCS-NH2 / II: [Dab]T[Dap][Dab][Dab][dL]L[Dab][Dab]T; disulfide I:2-I:11; amide I:5-II:N; lactam II:4-II:C)	0.5 µg/mL (≈ 0.205 µM)	0.5 µg/mL (≈ 0.205 µM)	0.03125 µg/mL (≈ 0.0128 µM)	0.0625 µg/mL (≈ 0.0256 µM)	0.25 µg/mL (≈ 0.102 µM)	0.125 µg/mL (≈ 0.0512 µM)	0.125 µg/mL (≈ 0.0512 µM)	0.0625 µg/mL (≈ 0.0256 µM)	–	–	–	–	<1%
CC(C)C[C@@H]1NC(=O)[C@@H](CC(C)C)NC(=O)[C@H](CCN)NC(=O)[C@@H](NC(=O)[C@H](CN)NC(=O)[C@@H](NC(=O)[C@H](CCN)NC(=O)CC[C@@H]2NC(=O)[C@H](CO)NC(=O)[C@H](Cc3ccc(O)cc3)NC(=O)[C@@H](NC(=O)[C@@H](O)C(C)C)CSSC[C@@H](C(=O)N[C@@H](CO)C(N)=O)NC(=O)[C@H](C(C)(C)C)NC(=O)[C@H](CO)NC(=O)[C@H](Cc3c[nH]c4ccccc34)NC(=O)[C@H](CCN)NC(=O)[C@@H](CCN)NC2=O)[C@@H](C)O)CCNC(=O)[C@H]([C@@H](C)O)NC(=O)[C@H](CCN)NC(=O)[C@H](CCN)NC1=O [Ex. 271] (I: H-[Hiv]CYSE[dDab][Dab]WS[Tle]CS-NH2 / II: [Dab]T[Dap][Dab][Dab][dL]L[Dab][Dab]T; disulfide I:2-I:11; amide I:5-II:N; lactam II:4-II:C)	0.0625 µg/mL (≈ 0.0264 µM)	0.0625 µg/mL (≈ 0.0264 µM)	0.03125 µg/mL (≈ 0.0132 µM)	0.03125 µg/mL (≈ 0.0132 µM)	0.25 µg/mL (≈ 0.105 µM)	0.0625 µg/mL (≈ 0.0264 µM)	0.0625 µg/mL (≈ 0.0264 µM)	0.0625 µg/mL (≈ 0.0264 µM)	–	–	–	–	<1%
CC(=O)N[C@H](C(=O)N[C@H]1CSSC[C@@H](C(=O)N[C@@H](CO)C(N)=O)NC(=O)[C@H](C(C)C)NC(=O)[C@H](CO)NC(=O)[C@H](Cc2c[nH]c3ccccc23)NC(=O)[C@H](CCN)NC(=O)[C@@H](CCN)NC(=O)[C@H](CCC(=O)N[C@@H](CCN)C(=O)N[C@H](C(=O)N[C@@H](CCN)C(=O)N[C@H]2CCNC(=O)[C@H]([C@@H](C)O)NC(=O)[C@H](CCN)NC(=O)[C@H](CCN)NC(=O)[C@H](CC(C)C)NC(=O)[C@@H](CC(C)C)NC(=O)[C@H](CCN)NC2=O)[C@@H](C)O)NC(=O)[C@H](CO)NC(=O)[C@H](Cc2ccc(O)cc2)NC1=O)C(C)C [Ex. 272] (I: Ac-VCYSE[dDab][Dab]WSVCS-NH2 / II: [Dab]T[Dab][Dab][Dab][dL]L[Dab][Dab]T; disulfide I:2-I:11; amide I:5-II:N; lactam II:4-II:C)	0.125 µg/mL (≈ 0.0518 µM)	0.125 µg/mL (≈ 0.0518 µM)	0.0625 µg/mL (≈ 0.0259 µM)	0.0625 µg/mL (≈ 0.0259 µM)	0.25 µg/mL (≈ 0.104 µM)	0.125 µg/mL (≈ 0.0518 µM)	0.0625 µg/mL (≈ 0.0259 µM)	0.0625 µg/mL (≈ 0.0259 µM)	–	–	–	–	<1%
CC(=O)N[C@H](C(=O)N[C@H]1CC(=O)NCC[C@@H](C(=O)N[C@@H](CO)C(N)=O)NC(=O)[C@H](C(C)C)NC(=O)[C@H](CO)NC(=O)[C@H](Cc2c[nH]c3ccccc23)NC(=O)CNC(=O)[C@@H](CCN)NC(=O)[C@H](CCC(=O)N[C@@H](CCN)C(=O)N[C@H](C(=O)N[C@@H](CN)C(=O)N[C@H]2CCNC(=O)[C@H]([C@@H](C)O)NC(=O)[C@H](CCN)NC(=O)[C@H](CCN)NC(=O)[C@H](CC(C)C)NC(=O)[C@@H](CC(C)C)NC(=O)[C@H](CCN)NC2=O)[C@@H](C)O)NC(=O)[C@H](CO)NC(=O)[C@H](Cc2ccc(O)cc2)NC1=O)C(C)C [Ex. 292] (I: Ac-VDYSE[dDab]GWSV[Dab]S-NH2 / II: [Dab]T[Dap][Dab][Dab][dL]L[Dab][Dab]T; lactam I:2-I:11, II:4-II:C; amide I:5-II:N)	4 µg/mL (≈ 1.7 µM)	1 µg/mL (≈ 0.426 µM)	0.125 µg/mL (≈ 0.0532 µM)	0.0625 µg/mL (≈ 0.0266 µM)	1 µg/mL (≈ 0.426 µM)	0.125 µg/mL (≈ 0.0532 µM)	0.5 µg/mL (≈ 0.213 µM)	0.25 µg/mL (≈ 0.106 µM)	–	–	–	–	<1%

Now from value to molecule, other results behind:

MIC [1]	MIC [2]	MIC [3]	MIC [4]	MIC [5]	MIC [6]	MIC [7]	MIC [8]	Acinetobacter baumannii DSM 30008 MIC [3]	Escherichia coli ATCC 25922 MIC [4]	Pseudomonas aeruginosa ATCC 27853 MIC [6]	Klebsiella pneumoniae SSI #3010 MIC [8]	Compound	Hemolysis at 200 μg/mL [9]
0.5 µg/mL (≈ 0.21 µM)	0.125 µg/mL (≈ 0.0524 µM)	–	–	0.125 µg/mL (≈ 0.0524 µM)	–	0.25 µg/mL (≈ 0.105 µM)	–	0.0625 µg/mL	0.0625 µg/mL	0.125 µg/mL	0.125 µg/mL	CC(C)C[C@@H]1NC(=O)[C@@H](CC(C)C)NC(=O)[C@H](CCN)NC(=O)[C@@H](NC(=O)[C@H](CN)NC(=O)[C@@H](NC(=O)[C@H](CCN)NC(=O)CC[C@@H]2NC(=O)[C@H](CCN)NC(=O)[C@H](Cc3ccc(O)cc3)NC(=O)[C@@H](NC(=O)[C@@H](O)C(C)C)CSSC(C)(C)[C@@H](C(=O)N[C@@H](CO)C(N)=O)NC(=O)[C@H](C(C)C)NC(=O)[C@H](CO)NC(=O)[C@H](Cc3c[nH]c4ccccc34)NC(=O)[C@H](CO)NC(=O)[C@@H](CCN)NC2=O)[C@@H](C)O)CCNC(=O)[C@H]([C@@H](C)O)NC(=O)[C@H](CCN)NC(=O)[C@H](CCN)NC1=O [Ex. 301] (I: H-[Hiv]CY[Dab]E[dDab]SWSV[Pen]S-NH2 / II: [Dab]T[Dap][Dab][Dab][dL]L[Dab][Dab]T; disulfide I:2-I:11; amide I:5-II:N; lactam II:4-II:C)	2%
2 µg/mL (≈ 0.831 µM)	2 µg/mL (≈ 0.831 µM)	–	–	0.5 µg/mL (≈ 0.208 µM)	–	0.5 µg/mL (≈ 0.208 µM)	–	0.125 µg/mL	0.0625 µg/mL	0.125 µg/mL	0.125 µg/mL	CC(=O)N[C@H](C(=O)N[C@H]1CCN(C)C(=O)C[C@@H](C(=O)N[C@@H](CO)C(N)=O)NC(=O)[C@H](C(C)C)NC(=O)[C@H](CO)NC(=O)[C@H](Cc2c[nH]c3ccccc23)NC(=O)[C@H](CO)NC(=O)[C@@H](CCN)NC(=O)[C@H](CCC(=O)N[C@@H](CCN)C(=O)N[C@H](C(=O)N[C@@H](CN)C(=O)N[C@H]2CCNC(=O)[C@H]([C@@H](C)O)NC(=O)[C@H](CCN)NC(=O)[C@H](CCN)NC(=O)[C@H](CC(C)C)NC(=O)[C@@H](CC(C)C)NC(=O)[C@H](CCN)NC2=O)[C@@H](C)O)NC(=O)[C@H](CCN)NC(=O)[C@H](Cc2ccc(O)cc2)NC1=O)C(C)C [Ex. 302]	3%
1 µg/mL (≈ 0.413 µM)	1 µg/mL (≈ 0.413 µM)	–	–	1 µg/mL (≈ 0.413 µM)	–	0.5 µg/mL (≈ 0.207 µM)	–	0.25 µg/mL	0.0625 µg/mL	0.25 µg/mL	0.0625 µg/mL	CC(=O)N[C@H](C(=O)N[C@H]1CCN(C)C(=O)CC[C@@H](C(=O)N[C@@H](CO)C(N)=O)NC(=O)[C@H](C(C)C)NC(=O)[C@H](CO)NC(=O)[C@H](Cc2c[nH]c3ccccc23)NC(=O)[C@H](CO)NC(=O)[C@@H](CCN)NC(=O)[C@H](CCC(=O)N[C@@H](CCN)C(=O)N[C@H](C(=O)N[C@@H](CN)C(=O)N[C@H]2CCNC(=O)[C@H]([C@@H](C)O)NC(=O)[C@H](CCN)NC(=O)[C@H](CCN)NC(=O)[C@H](CC(C)C)NC(=O)[C@@H](CC(C)C)NC(=O)[C@H](CCN)NC2=O)[C@@H](C)O)NC(=O)[C@H](CCN)NC(=O)[C@H](Cc2ccc(O)cc2)NC1=O)C(C)C [Ex. 303]	<1%
4 µg/mL (≈ 1.69 µM)	2 µg/mL (≈ 0.846 µM)	–	–	2 µg/mL (≈ 0.846 µM)	–	1 µg/mL (≈ 0.423 µM)	–	0.25 µg/mL	0.125 µg/mL	0.25 µg/mL	0.0625 µg/mL	CC(C)C[C@@H]1NC(=O)[C@@H](CC(C)C)NC(=O)[C@H](CCN)NC(=O)[C@@H](NC(=O)[C@H](CN)NC(=O)[C@@H](NC(=O)[C@H](CCN)NC(=O)CC[C@@H]2NC(=O)[C@H](CCN)NC(=O)[C@H](Cc3ccc(O)cc3)NC(=O)[C@@H](NC(=O)[C@@H](O)C(C)C)CCN(C)C(=O)C[C@@H](C(=O)N[C@@H](CO)C(N)=O)NC(=O)[C@H](C(C)C)NC(=O)[C@H](CO)NC(=O)[C@H](Cc3c[nH]c4ccccc34)NC(=O)[C@H](CO)NC(=O)[C@@H](CCN)NC2=O)[C@@H](C)O)CCNC(=O)[C@H]([C@@H](C)O)NC(=O)[C@H](CCN)NC(=O)[C@H](CCN)NC1=O [Ex. 304]	<1%
